Test results reported in publication PMC6874179, “Development of Macrocycle Kinase Inhibitors for ALK2 Using Fibrodysplasia Ossificans Progressiva‐Derived Endothelial Cells” (JBMR Plus, 2019).

Columns and labels:
[1] = target: T1, PRKAA1 (Homo sapiens, UniProt Q13131); experiment: Proqinase Kinase profiling; format: biochemical; conditions: read-out: % inhibition at 100nM
T1 construct: purchased DiscoverX

[2] = target: T2, CDK2_cyclinE (Homo sapiens, UniProt P24941); experiment: Proqinase Kinase profiling; format: biochemical; conditions: read-out: % inhibition at 100nM
T2 construct: purchased DiscoverX

[3] = target: T3, PHKG1 (Homo sapiens, UniProt Q16816); experiment: Proqinase Kinase profiling; format: biochemical; conditions: read-out: % inhibition at 100nM
T3 construct: purchased DiscoverX

[4] = target: T4, LRRK2_I2020T (Homo sapiens, UniProt Q5S007, I2020T); experiment: Proqinase Kinase profiling; format: biochemical; conditions: read-out: % inhibition at 100nM
T4 construct: purchased DiscoverX

[5] = target: T5, BMX (Homo sapiens, UniProt P51813); experiment: Proqinase Kinase profiling; format: biochemical; conditions: read-out: % inhibition at 100nM
T5 construct: purchased DiscoverX

[6] = target: T6, DSTYK (Homo sapiens, UniProt Q6XUX3); experiment: Proqinase Kinase profiling; format: biochemical; conditions: read-out: % inhibition at 100nM
T6 construct: purchased DiscoverX

[7] = target: T7, WNK1 (Homo sapiens, UniProt Q9H4A3); experiment: Proqinase Kinase profiling; format: biochemical; conditions: read-out: % inhibition at 100nM
T7 construct: purchased DiscoverX

[8] = target: T8, TEK_R849W (Homo sapiens, UniProt Q02763, R849W); experiment: Proqinase Kinase profiling; format: biochemical; conditions: read-out: % inhibition at 100nM
T8 construct: purchased DiscoverX

[9] = target: T9, EGFR_T790M_L858R (Homo sapiens, UniProt P00533, L858R/T790M); experiment: Proqinase Kinase profiling; format: biochemical; conditions: read-out: % inhibition at 100nM
T9 construct: purchased DiscoverX

[10] = target: T10, MAP2K1 (Homo sapiens, UniProt Q02750); experiment: Proqinase Kinase profiling; format: biochemical; conditions: read-out: % inhibition at 100nM
T10 construct: purchased DiscoverX

[11] = target: T11, BRSK1 (Homo sapiens, UniProt Q8TDC3); experiment: Proqinase Kinase profiling; format: biochemical; conditions: read-out: % inhibition at 100nM
T11 construct: purchased DiscoverX

[12] = target: T12, MUSK (Homo sapiens, UniProt O15146); experiment: Proqinase Kinase profiling; format: biochemical; conditions: read-out: % inhibition at 100nM
T12 construct: purchased DiscoverX

[13] = target: T13, AXL (Homo sapiens, UniProt P30530); experiment: Proqinase Kinase profiling; format: biochemical; conditions: read-out: % inhibition at 100nM
T13 construct: purchased DiscoverX

[14] = target: T14, FLT3 (Homo sapiens, UniProt P36888); experiment: Proqinase Kinase profiling; format: biochemical; conditions: read-out: % inhibition at 100nM
T14 construct: purchased DiscoverX

[15] = target: T15, CDC42BPB (Homo sapiens, UniProt Q9Y5S2); experiment: Proqinase Kinase profiling; format: biochemical; conditions: read-out: % inhibition at 100nM
T15 construct: purchased DiscoverX

[16] = target: T16, caALK2 (Homo sapiens, UniProt Q04771, Q207D); experiment: BRE-LUC with constitutive active ALK2 in C2C12 cells; format: cell-based; conditions: compound 0.5μM 16 hours
T16 construct: expressed in transfected cells; host or cells: C2C12 murine myofibroblast cells
Method: Compounds were added for 16 hours at 0.5μM before luciferase activity was measured.
For luciferase reporter assays, cells were seeded in 24-well plates and transfected with DharmaFECT Duo (Fisher Scientific, Landsmeer, The Netherlands), following the recommendations of the manufacturer. 48 hours after transfection the cells were harvested and lysed. […] Each transfection mixture was equalized with empty vector when necessary and every experiment was performed in triplicate.

[17] = target: T17, FER (Homo sapiens, UniProt P16591); experiment: Proqinase Kinase profiling; format: biochemical; conditions: read-out: % inhibition at 100nM
T17 construct: purchased DiscoverX

[18] = target: T18, SRC (Homo sapiens, UniProt P12931); experiment: Proqinase Kinase profiling; format: biochemical; conditions: read-out: % inhibition at 100nM
T18 construct: purchased DiscoverX

[19] = target: T19, KIT_V654A (Homo sapiens, UniProt P10721, V654A); experiment: Proqinase Kinase profiling; format: biochemical; conditions: read-out: % inhibition at 100nM
T19 construct: purchased DiscoverX

[20] = target: T20, WNK3 (Homo sapiens, UniProt Q9BYP7); experiment: Proqinase Kinase profiling; format: biochemical; conditions: read-out: % inhibition at 100nM
T20 construct: purchased DiscoverX

[21] = target: T21, PDGFRA_V561D (Homo sapiens, UniProt P16234, V561D); experiment: Proqinase Kinase profiling; format: biochemical; conditions: read-out: % inhibition at 100nM
T21 construct: purchased DiscoverX

[22] = target: T22, FGFR3_K650M (Homo sapiens, UniProt P22607, K650M); experiment: Proqinase Kinase profiling; format: biochemical; conditions: read-out: % inhibition at 100nM
T22 construct: purchased DiscoverX

[23] = target: T23, PRKG1 (Homo sapiens, UniProt Q13976); experiment: Proqinase Kinase profiling; format: biochemical; conditions: read-out: % inhibition at 100nM
T23 construct: purchased DiscoverX

[24] = target: T24, CDK1_cyclinA2 (Homo sapiens, UniProt P06493); experiment: Proqinase Kinase profiling; format: biochemical; conditions: read-out: % inhibition at 100nM
T24 construct: purchased DiscoverX

[25] = system: FLT3_ITD; experiment: Proqinase Kinase profiling; format: biochemical
[26] = target: T25, RET_V804L (Homo sapiens, UniProt P07949, V804L); experiment: Proqinase Kinase profiling; format: biochemical; conditions: read-out: % inhibition at 100nM
T25 construct: purchased DiscoverX

[27] = target: T26, PKN1 (Homo sapiens, UniProt Q16512); experiment: Proqinase Kinase profiling; format: biochemical; conditions: read-out: % inhibition at 100nM
T26 construct: purchased DiscoverX

[28] = target: T27, NTRK1 (Homo sapiens, UniProt P04629); experiment: Proqinase Kinase profiling; format: biochemical; conditions: read-out: % inhibition at 100nM
T27 construct: purchased DiscoverX

[29] = target: T28, ROCK2 (Homo sapiens, UniProt O75116); experiment: Proqinase Kinase profiling; format: biochemical; conditions: read-out: % inhibition at 100nM
T28 construct: purchased DiscoverX

[30] = target: T29, PTK2 (Homo sapiens, UniProt Q05397); experiment: Proqinase Kinase profiling; format: biochemical; conditions: read-out: % inhibition at 100nM
T29 construct: purchased DiscoverX

[31] = target: T30, MAP3K8 (Homo sapiens, UniProt P41279); experiment: Proqinase Kinase profiling; format: biochemical; conditions: read-out: % inhibition at 100nM
T30 construct: purchased DiscoverX

[32] = target: T31, FES (Homo sapiens, UniProt P07332); experiment: Proqinase Kinase profiling; format: biochemical; conditions: read-out: % inhibition at 100nM
T31 construct: purchased DiscoverX

[33] = target: T32, ALK_C1156Y (Homo sapiens, UniProt Q9UM73, C1156Y); experiment: Proqinase Kinase profiling; format: biochemical; conditions: read-out: % inhibition at 100nM
T32 construct: purchased DiscoverX

[34] = target: T33, ABL1_Y253F (Homo sapiens, UniProt P00519, Y253F); experiment: Proqinase Kinase profiling; format: biochemical; conditions: read-out: % inhibition at 100nM
T33 construct: purchased DiscoverX

[35] = target: T34, TGFbR1 (Homo sapiens, UniProt P36897); experiment: Proqinase Kinase profiling; format: biochemical; conditions: read-out: % inhibition at 100nM
T34 construct: purchased DiscoverX

[36] = target: T35, ACVR2B (Homo sapiens, UniProt Q13705); experiment: Proqinase Kinase profiling; format: biochemical; conditions: read-out: % inhibition at 100nM
T35 construct: T7 phage fusion (or DNA tag for qPCR if made in HEK-293); purchased DiscoverX; host or cells: E. coli (T7 phage) or HEK-293

[37] = target: T36, RET_M918T (Homo sapiens, UniProt P07949, M918T); experiment: Proqinase Kinase profiling; format: biochemical; conditions: read-out: % inhibition at 100nM
T36 construct: purchased DiscoverX

[38] = target: T37, EGFR_L861Q (Homo sapiens, UniProt P00533, L861Q); experiment: Proqinase Kinase profiling; format: biochemical; conditions: read-out: % inhibition at 100nM
T37 construct: purchased DiscoverX

[39] = target: T38, PRKCB1_I (Homo sapiens, UniProt P05771); experiment: Proqinase Kinase profiling; format: biochemical; conditions: read-out: % inhibition at 100nM
T38 construct: purchased DiscoverX

T23 sequence (Q13976 whole entry): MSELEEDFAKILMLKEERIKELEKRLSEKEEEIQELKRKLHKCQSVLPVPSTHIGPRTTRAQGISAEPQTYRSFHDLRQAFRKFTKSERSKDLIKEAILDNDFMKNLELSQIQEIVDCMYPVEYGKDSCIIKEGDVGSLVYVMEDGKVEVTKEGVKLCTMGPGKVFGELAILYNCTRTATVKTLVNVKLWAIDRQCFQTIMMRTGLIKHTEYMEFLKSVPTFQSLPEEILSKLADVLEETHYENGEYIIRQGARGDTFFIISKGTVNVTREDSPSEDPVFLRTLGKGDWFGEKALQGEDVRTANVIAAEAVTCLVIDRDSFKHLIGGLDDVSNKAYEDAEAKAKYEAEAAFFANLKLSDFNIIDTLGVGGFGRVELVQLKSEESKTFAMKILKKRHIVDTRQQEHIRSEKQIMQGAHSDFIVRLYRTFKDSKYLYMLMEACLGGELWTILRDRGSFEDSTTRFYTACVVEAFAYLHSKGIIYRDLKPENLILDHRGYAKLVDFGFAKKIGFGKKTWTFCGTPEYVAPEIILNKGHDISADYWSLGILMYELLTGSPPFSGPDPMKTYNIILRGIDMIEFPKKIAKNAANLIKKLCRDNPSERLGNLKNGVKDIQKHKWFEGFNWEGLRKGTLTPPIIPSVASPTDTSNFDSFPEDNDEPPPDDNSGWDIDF
T27 sequence (P04629 33-796): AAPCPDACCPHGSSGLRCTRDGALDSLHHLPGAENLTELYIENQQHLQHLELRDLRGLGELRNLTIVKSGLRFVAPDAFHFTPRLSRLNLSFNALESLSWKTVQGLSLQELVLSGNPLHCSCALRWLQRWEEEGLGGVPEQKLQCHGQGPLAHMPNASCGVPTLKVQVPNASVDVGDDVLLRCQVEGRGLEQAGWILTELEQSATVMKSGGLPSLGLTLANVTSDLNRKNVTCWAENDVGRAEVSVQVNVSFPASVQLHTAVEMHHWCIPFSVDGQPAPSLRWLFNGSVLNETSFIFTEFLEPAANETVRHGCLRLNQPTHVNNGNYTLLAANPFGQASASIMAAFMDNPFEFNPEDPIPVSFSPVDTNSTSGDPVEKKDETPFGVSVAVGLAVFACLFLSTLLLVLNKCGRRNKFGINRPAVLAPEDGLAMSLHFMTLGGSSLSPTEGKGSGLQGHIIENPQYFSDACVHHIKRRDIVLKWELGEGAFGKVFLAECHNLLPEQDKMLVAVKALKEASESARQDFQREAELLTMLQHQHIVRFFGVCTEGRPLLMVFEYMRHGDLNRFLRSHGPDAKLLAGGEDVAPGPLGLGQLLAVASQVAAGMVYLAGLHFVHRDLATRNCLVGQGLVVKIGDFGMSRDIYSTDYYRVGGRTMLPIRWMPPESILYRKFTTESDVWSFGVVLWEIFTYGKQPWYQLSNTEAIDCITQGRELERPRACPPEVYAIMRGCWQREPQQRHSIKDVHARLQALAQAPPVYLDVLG
T5 sequence (P51813 whole entry): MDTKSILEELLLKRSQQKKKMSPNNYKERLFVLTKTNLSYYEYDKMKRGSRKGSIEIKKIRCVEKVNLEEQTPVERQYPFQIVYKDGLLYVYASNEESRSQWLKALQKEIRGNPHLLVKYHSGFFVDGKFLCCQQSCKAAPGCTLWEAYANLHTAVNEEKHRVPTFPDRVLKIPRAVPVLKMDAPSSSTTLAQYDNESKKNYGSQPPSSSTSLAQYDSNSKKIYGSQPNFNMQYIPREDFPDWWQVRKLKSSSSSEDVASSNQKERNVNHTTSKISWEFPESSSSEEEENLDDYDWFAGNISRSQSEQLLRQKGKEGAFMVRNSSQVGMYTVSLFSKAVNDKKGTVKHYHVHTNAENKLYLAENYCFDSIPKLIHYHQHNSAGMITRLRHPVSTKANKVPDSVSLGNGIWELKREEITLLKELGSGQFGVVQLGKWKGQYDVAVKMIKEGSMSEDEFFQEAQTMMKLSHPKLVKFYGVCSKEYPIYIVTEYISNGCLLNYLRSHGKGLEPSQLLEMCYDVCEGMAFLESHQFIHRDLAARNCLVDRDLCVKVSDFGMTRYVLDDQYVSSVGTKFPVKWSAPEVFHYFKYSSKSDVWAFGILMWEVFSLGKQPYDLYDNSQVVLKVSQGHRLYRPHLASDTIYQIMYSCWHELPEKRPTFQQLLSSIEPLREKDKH
T29 sequence (Q05397 whole entry): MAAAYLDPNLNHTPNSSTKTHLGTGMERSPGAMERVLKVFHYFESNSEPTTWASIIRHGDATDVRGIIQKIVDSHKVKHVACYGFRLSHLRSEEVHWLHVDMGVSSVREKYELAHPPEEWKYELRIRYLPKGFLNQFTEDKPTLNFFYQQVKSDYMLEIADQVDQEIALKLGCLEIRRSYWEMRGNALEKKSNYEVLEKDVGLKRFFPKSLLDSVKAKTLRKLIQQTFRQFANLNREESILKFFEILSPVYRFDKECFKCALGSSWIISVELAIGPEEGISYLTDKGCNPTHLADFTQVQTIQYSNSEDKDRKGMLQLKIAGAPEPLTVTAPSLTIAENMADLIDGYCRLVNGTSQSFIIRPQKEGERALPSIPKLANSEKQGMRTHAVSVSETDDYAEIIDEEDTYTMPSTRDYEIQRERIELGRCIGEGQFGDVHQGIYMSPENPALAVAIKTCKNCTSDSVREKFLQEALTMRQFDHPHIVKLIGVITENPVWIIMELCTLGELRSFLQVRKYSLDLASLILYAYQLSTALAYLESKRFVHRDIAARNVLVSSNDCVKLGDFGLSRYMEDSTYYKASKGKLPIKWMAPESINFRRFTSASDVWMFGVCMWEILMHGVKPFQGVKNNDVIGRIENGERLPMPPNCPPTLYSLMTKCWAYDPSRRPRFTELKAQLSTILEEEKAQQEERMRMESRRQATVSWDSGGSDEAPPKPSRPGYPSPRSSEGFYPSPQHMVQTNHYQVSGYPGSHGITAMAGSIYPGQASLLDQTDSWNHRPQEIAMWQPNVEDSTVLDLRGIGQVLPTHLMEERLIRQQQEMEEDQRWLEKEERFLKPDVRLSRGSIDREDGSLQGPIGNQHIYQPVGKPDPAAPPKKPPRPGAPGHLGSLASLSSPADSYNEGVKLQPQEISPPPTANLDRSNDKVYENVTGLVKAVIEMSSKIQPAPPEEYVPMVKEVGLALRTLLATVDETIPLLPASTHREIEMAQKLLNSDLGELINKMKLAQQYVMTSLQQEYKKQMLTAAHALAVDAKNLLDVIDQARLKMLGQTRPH
T10 sequence (Q02750 whole entry): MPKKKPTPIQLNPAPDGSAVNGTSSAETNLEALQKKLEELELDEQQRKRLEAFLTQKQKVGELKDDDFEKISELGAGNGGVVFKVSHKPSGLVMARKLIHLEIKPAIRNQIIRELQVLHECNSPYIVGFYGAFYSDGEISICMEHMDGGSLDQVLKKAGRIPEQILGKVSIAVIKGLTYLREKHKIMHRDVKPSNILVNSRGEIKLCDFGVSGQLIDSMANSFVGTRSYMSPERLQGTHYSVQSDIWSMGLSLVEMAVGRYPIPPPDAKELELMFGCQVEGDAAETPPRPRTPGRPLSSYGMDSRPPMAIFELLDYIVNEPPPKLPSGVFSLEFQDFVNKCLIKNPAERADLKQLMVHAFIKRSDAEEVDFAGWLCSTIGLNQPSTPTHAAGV
T28 sequence (O75116 whole entry): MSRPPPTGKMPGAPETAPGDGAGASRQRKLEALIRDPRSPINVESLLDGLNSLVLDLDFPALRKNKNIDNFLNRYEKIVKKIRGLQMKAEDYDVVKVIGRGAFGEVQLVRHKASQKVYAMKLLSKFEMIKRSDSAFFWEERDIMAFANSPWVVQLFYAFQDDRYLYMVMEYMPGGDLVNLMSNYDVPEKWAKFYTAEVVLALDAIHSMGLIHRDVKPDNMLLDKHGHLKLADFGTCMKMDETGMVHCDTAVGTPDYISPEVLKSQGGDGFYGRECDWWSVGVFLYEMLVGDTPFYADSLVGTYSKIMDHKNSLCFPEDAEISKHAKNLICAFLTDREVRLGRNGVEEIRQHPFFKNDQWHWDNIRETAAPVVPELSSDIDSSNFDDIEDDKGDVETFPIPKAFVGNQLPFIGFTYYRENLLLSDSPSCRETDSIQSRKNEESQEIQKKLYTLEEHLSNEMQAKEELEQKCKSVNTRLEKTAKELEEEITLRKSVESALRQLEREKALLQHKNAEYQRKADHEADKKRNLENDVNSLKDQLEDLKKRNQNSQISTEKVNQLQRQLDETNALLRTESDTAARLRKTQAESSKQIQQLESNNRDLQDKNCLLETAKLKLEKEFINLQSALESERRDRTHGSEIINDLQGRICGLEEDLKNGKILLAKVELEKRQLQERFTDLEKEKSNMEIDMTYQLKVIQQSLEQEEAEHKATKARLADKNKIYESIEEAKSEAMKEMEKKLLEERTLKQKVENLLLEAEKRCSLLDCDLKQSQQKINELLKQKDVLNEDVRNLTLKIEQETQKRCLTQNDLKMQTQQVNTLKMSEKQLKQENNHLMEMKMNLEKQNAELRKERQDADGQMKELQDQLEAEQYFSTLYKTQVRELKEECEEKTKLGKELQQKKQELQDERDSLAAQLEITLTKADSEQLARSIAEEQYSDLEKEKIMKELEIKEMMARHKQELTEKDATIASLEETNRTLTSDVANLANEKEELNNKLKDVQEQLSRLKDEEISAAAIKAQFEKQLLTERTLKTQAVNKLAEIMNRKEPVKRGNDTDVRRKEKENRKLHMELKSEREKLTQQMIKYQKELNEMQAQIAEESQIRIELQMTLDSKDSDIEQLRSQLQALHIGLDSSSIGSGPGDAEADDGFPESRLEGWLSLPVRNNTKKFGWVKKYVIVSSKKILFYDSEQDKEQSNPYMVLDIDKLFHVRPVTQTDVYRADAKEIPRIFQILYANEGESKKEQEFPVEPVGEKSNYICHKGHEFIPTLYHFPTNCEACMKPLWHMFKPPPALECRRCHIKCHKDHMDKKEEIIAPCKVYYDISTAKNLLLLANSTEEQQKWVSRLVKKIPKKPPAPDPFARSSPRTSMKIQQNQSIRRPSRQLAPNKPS

SMILES: Clc1cc2cc(c1)-c1cnn3ccc(nc13)NCCOCCO2 [OD36]
- inhibition at 0.1 µM [1]: 21%
- inhibition at 0.1 µM [2]: 7%
- inhibition at 0.1 µM [3]: 8%
- inhibition at 0.1 µM [4]: 49%
- inhibition at 0.1 µM [5]: 9%
- inhibition at 0.1 µM [6]: 3%
- inhibition at 0.1 µM [7]: 18%
- inhibition at 0.1 µM [8]: 8%
- inhibition at 0.1 µM [9]: -13%
- inhibition at 0.1 µM [10]: 6%
- inhibition at 0.1 µM [11]: 8%
- inhibition at 0.1 µM [12]: -1%
- inhibition at 0.1 µM [13]: 10%
- inhibition at 0.1 µM [14]: 6%
- inhibition at 0.1 µM [15]: 7%
- Inhibition of caALK2-driven BRE-LUC activity [16]: exclusively inhibited ALK2
- inhibition at 0.1 µM [17]: 6%
- inhibition at 0.1 µM [18]: 15%
- inhibition at 0.1 µM [19]: 5%
- inhibition at 0.1 µM [20]: 5%
- inhibition at 0.1 µM [21]: -1%
- inhibition at 0.1 µM [22]: 2%
- inhibition at 0.1 µM [23]: 3%
- inhibition at 0.1 µM [24]: 11%
- % inhibition at 100nM [25]: 36%
- inhibition at 0.1 µM [26]: -10%
- inhibition at 0.1 µM [27]: 16%
- inhibition at 0.1 µM [28]: 14%
- inhibition at 0.1 µM [29]: 7%
- inhibition at 0.1 µM [30]: 18%
- inhibition at 0.1 µM [31]: 5%
- inhibition at 0.1 µM [32]: 9%
- inhibition at 0.1 µM [33]: 13%
- inhibition at 0.1 µM [34]: 3%
- inhibition at 0.1 µM [35]: 5%
- inhibition at 0.1 µM [36]: 90%
- inhibition at 0.1 µM [37]: 33%
- inhibition at 0.1 µM [38]: 15%
- inhibition at 0.1 µM [39]: 7%

SMILES: Cc1cc2cc(c1)-c1cnn3ccc(nc13)NCCNC(=O)CCN(C)C2 [OD52]
- inhibition at 0.1 µM [1]: -11%
- inhibition at 0.1 µM [2]: 5%
- inhibition at 0.1 µM [3]: -4%
- inhibition at 0.1 µM [4]: 22%
- inhibition at 0.1 µM [5]: -34%
- inhibition at 0.1 µM [6]: -1%
- inhibition at 0.1 µM [7]: -2%
- inhibition at 0.1 µM [8]: -16%
- inhibition at 0.1 µM [9]: 0%
- inhibition at 0.1 µM [10]: 10%
- inhibition at 0.1 µM [11]: -1%
- inhibition at 0.1 µM [12]: -11%
- inhibition at 0.1 µM [13]: 10%
- inhibition at 0.1 µM [14]: -18%
- inhibition at 0.1 µM [15]: 11%
- Inhibition of caALK2-driven BRE-LUC activity [16]: exclusively inhibited ALK2
- inhibition at 0.1 µM [17]: -12%
- inhibition at 0.1 µM [18]: -6%
- inhibition at 0.1 µM [19]: -9%
- inhibition at 0.1 µM [20]: -4%
- inhibition at 0.1 µM [21]: 12%
- inhibition at 0.1 µM [22]: -2%
- inhibition at 0.1 µM [23]: -6%
- inhibition at 0.1 µM [24]: 1%
- % inhibition at 100nM [25]: 19%
- inhibition at 0.1 µM [26]: -8%
- inhibition at 0.1 µM [27]: 5%
- inhibition at 0.1 µM [28]: 29%
- inhibition at 0.1 µM [29]: -9%
- inhibition at 0.1 µM [30]: -1%
- inhibition at 0.1 µM [31]: -10%
- inhibition at 0.1 µM [32]: -26%
- inhibition at 0.1 µM [33]: -6%
- inhibition at 0.1 µM [34]: 7%
- inhibition at 0.1 µM [35]: 4%
- inhibition at 0.1 µM [36]: 17%
- inhibition at 0.1 µM [37]: 33%
- inhibition at 0.1 µM [38]: -4%
- inhibition at 0.1 µM [39]: -5%
